Measured values as given in US8192989B2, “Solid surface for biomolecule delivery and high-throughput assay” (Nitto Denko Corporation, priority 2003, dated 2012).

Assays:
293 cells [1] = assay: Effect of membrane disturbing peptide on PLL-laminin mediated gene transfer; format: cell-based; conditions: membrane disturbing peptide in PLL-laminin based transfectable surface, 96-well (FIG. 28)
293 cells [2] = assay: Cytotoxicity assay - MTT assay after transfection; format: cell-based
Procedure: Glutamine (100 mmol/L) and different transfection reagents (NDT-CP-B-1, NDT-CP-1, Superfect and lipofectamine 2000) were diluted in 0.2% gelatin solution, and 25 μl of the solution containing Glutamine/transfection reagent/gelatin was added into a 96 well plate and allowed to air dry. Then 25 μl GFP plasmid solution in opti MEM (20.0 μg/ml) was added into each well and incubated at room temperature for 25 min. The dried plate was ready for use (FIG. 32).
In this experiment, 0.2% gelatin or 0.2% gelatin and 40.0 μg/ml laminin mixture was used for diluting transfection reagents NDT-CP-B-1, NDT-CP-1, NDT-LP-1 NDT-LP-2, Superfect and lipofectamine 2000, and 25 μl solution was added into 96 well plate. The amounts of NDT polymers used in each well were 8, 4 or 2 μg, respectively, the amounts of Superfect were 15, 7.5 and 3.8 μg/well respectively, and the amounts of lipofectamine 2000 were 2.5, 1.25 and 0.63 μg/well respectively. […] The transfection efficiency and cytotoxicity were analyzed by fluorescent microscope and MTT assay (FIG. 33).
The cytotoxicities of transfection reagents on mammalian cells were evaluated using 3-[4,5 dimethylthiazol-2-yl]-2,5-diphenyltetrazolium bromide (MTT) method. […] The absorbance of the solution was measured at 570 nm. Cell viabilities was calculated using the equation: Viability (%)={Abs570 (sample)/Abs570 (control)}×100 (FIG. 31).

Molecule: RRRQGTWLNPGFPPQSCGYATVTDARRR (Chemically synthesized peptide corresponding to viral envelope protein VSVG) [VSVG peptide]
- effect on transfection efficiency (293 cells [1]): significantly enhance transfection efficiency

Molecule: laminin
- effect on cytotoxicity caused by transfection reagents and procedures (293 cells [2]; cell attaching reagent in transfection reagents-gelatin surface, with versus without laminin (FIG. 33)): significantly improved cytotoxicity

Molecule: NC(=O)CC[C@H](N)C(=O)O [glutamine, Glutamine]
- effect on transfection cytotoxicity (293 cells [2]; cytoreductive reagent added to transfectable surface, with versus without glutamine (FIG. 32)): significantly improved transfection cytotoxicity
